US20230257396A1, “MACROCYCLES AND THEIR USE” (BLOSSOMHILL THERAPEUTICS, INC., priority 2020, published 2023)

Columns and labels:
Test in all cases: KINOMEscan kinase binding assay (Eurofins/DiscoveRx), % Ctrl
Conditions in all cases: 1 μM
kinases [1] = biological target: T1, kinases (Homo sapiens, UniProt P00519, F317I)
T1 construct: purchased Eurofins/DiscoveRx; host or cells: E. coli BL21-derived host (T7 phage display) for most kinases; HEK-293 for the rest
Outline: (§1)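 Competition binding: DNA- or phage-tagged kinases (T7 phage in E. coli BL21, or HEK-293-expressed) with immobilized biotinylated ligand beads and test compound, 1 h at room temperature. Bead-bound kinase eluted and quantified by qPCR; % Ctrl = (compound − positive control)/(negative control − positive control) ×100 at a single compound concentration.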

kinases [2] = biological target: T2, kinases (Homo sapiens, UniProt P00533)
T2 construct: purchased Eurofins/DiscoveRx; host or cells: E. coli BL21-derived host (T7 phage display) for most kinases; HEK-293 for the rest
Outline: as §1

kinases [3] = biological target: T3, kinases (Homo sapiens, UniProt P10721, D816V)
T3 construct: purchased Eurofins/DiscoveRx; host or cells: E. coli BL21-derived host (T7 phage display) for most kinases; HEK-293 for the rest
Outline: as §1

kinases [4] = biological target: T4, kinases (Homo sapiens, UniProt P10721, V559D)
T4 construct: purchased Eurofins/DiscoveRx; host or cells: E. coli BL21-derived host (T7 phage display) for most kinases; HEK-293 for the rest
Outline: as §1

kinases [5] = biological target: T5, kinases (Homo sapiens, UniProt P10721, V559D/V654A)
T5 construct: purchased Eurofins/DiscoveRx; host or cells: E. coli BL21-derived host (T7 phage display) for most kinases; HEK-293 for the rest
Outline: as §1

kinases [6] = biological target: T6, kinases (Homo sapiens, UniProt P42684)
T6 construct: purchased Eurofins/DiscoveRx; host or cells: E. coli BL21-derived host (T7 phage display) for most kinases; HEK-293 for the rest
Outline: as §1

kinases [7] = biological target: T7, kinases (Homo sapiens, UniProt P00533, L861Q)
T7 construct: purchased Eurofins/DiscoveRx; host or cells: E. coli BL21-derived host (T7 phage display) for most kinases; HEK-293 for the rest
Outline: as §1

kinases [8] = biological target: T8, kinases (Homo sapiens, UniProt P10721)
T8 construct: purchased Eurofins/DiscoveRx; host or cells: E. coli BL21-derived host (T7 phage display) for most kinases; HEK-293 for the rest
Outline: as §1

kinases [9] = biological target: T9, kinases (Homo sapiens, UniProt P36888, N841I)
T9 construct: purchased Eurofins/DiscoveRx; host or cells: E. coli BL21-derived host (T7 phage display) for most kinases; HEK-293 for the rest
T9 sequence (P36888 27-993 N841I): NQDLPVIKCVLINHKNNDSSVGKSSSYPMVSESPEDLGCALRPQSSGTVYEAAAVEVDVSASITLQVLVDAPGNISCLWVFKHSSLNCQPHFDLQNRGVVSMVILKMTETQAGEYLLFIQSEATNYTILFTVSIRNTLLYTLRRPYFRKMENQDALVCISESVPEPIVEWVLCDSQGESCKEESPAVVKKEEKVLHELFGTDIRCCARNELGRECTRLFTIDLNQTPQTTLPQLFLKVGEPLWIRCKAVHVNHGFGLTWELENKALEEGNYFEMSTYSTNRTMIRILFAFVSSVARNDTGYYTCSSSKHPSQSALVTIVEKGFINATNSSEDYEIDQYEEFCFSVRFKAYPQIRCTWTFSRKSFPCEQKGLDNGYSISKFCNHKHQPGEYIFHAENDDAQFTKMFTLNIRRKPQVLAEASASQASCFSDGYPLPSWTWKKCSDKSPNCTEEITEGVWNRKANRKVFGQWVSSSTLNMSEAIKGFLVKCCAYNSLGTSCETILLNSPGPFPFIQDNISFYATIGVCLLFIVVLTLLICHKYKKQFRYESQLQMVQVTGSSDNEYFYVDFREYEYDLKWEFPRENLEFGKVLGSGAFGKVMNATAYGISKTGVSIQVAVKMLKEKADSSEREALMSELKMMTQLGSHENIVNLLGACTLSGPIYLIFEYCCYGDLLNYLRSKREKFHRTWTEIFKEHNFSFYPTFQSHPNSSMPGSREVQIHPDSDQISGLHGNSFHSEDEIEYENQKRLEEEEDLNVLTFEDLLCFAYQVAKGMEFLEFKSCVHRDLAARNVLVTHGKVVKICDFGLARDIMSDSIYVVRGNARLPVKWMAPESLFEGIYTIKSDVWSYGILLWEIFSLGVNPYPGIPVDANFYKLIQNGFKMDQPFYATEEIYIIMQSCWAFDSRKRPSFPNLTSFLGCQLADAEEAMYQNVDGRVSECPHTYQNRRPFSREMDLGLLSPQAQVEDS
Outline: as §1

kinases [10] = biological target: T10, kinases (Homo sapiens, UniProt P07949, V804L)
T10 construct: purchased Eurofins/DiscoveRx; host or cells: E. coli BL21-derived host (T7 phage display) for most kinases; HEK-293 for the rest
Outline: as §1

kinases [11] = biological target: T11, kinases (Homo sapiens, UniProt P10721, A829P)
T11 construct: purchased Eurofins/DiscoveRx; host or cells: E. coli BL21-derived host (T7 phage display) for most kinases; HEK-293 for the rest
Outline: as §1

T1 sequence (P00519 whole entry F317I): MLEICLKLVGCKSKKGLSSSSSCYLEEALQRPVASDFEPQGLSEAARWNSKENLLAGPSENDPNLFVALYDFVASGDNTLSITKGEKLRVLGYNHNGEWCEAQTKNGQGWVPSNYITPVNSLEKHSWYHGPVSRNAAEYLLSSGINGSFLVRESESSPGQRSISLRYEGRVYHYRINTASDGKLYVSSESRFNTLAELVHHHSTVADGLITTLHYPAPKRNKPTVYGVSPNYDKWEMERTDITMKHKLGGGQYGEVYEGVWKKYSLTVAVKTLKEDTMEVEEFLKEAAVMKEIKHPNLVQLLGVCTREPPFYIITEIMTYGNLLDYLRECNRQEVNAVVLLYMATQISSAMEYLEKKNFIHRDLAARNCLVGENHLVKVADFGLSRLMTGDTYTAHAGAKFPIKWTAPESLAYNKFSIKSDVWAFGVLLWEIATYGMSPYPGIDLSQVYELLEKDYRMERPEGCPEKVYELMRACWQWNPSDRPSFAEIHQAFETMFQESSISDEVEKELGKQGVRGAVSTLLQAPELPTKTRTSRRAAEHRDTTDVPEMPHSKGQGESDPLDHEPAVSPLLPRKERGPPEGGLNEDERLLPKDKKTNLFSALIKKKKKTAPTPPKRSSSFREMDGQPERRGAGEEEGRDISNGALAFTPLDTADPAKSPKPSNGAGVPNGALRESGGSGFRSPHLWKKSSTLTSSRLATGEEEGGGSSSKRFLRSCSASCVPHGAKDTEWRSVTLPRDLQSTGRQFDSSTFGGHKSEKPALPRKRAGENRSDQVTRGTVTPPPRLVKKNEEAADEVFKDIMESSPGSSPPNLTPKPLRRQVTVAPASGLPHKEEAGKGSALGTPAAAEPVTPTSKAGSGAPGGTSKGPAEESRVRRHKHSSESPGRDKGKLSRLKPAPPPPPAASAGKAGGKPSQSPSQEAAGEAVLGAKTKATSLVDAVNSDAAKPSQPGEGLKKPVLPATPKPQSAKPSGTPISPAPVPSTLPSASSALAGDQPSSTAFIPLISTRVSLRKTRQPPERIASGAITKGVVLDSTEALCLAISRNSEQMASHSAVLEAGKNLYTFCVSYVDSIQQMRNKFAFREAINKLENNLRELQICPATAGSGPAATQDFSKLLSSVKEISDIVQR
T11 sequence (P10721 26-976 A829P): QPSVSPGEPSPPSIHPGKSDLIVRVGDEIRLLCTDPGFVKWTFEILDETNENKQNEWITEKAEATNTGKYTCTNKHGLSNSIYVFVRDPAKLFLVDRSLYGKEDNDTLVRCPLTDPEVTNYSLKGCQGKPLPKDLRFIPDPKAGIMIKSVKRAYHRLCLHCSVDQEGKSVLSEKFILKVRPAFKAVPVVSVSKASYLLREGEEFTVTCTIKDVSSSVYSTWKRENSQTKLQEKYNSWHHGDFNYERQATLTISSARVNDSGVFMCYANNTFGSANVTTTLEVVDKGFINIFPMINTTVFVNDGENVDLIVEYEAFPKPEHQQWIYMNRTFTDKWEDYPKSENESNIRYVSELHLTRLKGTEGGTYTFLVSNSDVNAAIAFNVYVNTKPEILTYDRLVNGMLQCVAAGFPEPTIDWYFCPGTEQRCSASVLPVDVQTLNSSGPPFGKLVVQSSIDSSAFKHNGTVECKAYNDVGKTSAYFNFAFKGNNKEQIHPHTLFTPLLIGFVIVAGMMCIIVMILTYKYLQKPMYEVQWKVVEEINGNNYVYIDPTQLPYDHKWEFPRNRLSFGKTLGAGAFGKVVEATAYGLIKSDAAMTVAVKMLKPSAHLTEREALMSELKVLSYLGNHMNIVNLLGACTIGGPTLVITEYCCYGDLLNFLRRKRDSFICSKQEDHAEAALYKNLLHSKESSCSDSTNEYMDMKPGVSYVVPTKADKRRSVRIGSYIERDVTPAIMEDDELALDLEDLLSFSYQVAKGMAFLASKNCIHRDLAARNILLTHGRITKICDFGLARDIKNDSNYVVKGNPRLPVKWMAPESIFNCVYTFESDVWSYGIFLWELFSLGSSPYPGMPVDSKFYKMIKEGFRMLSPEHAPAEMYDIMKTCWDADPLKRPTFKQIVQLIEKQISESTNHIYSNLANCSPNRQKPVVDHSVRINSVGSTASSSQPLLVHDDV
T8 sequence (P10721 26-976): as the sequence (P10721 26-976 A829P) above, with P804A counted along it
T10 sequence (P07949 29-1114 V804L): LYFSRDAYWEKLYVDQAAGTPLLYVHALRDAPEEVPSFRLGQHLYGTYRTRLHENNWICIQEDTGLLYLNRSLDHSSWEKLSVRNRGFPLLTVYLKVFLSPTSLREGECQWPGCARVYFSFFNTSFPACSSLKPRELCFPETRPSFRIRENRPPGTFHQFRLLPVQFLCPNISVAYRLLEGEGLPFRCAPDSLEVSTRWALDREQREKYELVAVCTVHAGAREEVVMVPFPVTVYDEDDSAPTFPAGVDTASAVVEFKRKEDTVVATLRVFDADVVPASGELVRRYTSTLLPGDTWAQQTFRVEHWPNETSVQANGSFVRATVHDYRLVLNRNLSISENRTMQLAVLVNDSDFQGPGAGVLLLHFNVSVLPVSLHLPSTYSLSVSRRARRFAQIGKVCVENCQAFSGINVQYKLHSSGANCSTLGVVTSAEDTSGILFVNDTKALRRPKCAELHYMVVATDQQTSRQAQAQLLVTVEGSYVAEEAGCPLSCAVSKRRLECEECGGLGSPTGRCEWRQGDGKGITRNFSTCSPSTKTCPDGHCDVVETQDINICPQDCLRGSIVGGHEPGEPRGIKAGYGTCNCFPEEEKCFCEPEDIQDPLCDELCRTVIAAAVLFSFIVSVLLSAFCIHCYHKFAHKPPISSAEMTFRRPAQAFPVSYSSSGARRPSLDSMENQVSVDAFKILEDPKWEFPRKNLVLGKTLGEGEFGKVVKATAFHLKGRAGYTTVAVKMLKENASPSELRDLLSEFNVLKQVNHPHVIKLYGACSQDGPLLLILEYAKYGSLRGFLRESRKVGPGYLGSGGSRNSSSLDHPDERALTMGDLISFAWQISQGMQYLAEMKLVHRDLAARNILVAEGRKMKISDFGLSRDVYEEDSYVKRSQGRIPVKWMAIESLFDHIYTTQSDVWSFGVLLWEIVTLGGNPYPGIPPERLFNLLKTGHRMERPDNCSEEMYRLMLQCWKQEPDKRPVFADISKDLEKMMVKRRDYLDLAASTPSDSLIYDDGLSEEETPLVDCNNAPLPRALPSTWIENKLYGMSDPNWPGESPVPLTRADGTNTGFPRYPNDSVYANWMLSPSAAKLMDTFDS
T3 sequence (P10721 26-976 D816V): as the sequence (P10721 26-976 A829P) above, with D791V, P804A counted along it
T6 sequence (P42684 whole entry): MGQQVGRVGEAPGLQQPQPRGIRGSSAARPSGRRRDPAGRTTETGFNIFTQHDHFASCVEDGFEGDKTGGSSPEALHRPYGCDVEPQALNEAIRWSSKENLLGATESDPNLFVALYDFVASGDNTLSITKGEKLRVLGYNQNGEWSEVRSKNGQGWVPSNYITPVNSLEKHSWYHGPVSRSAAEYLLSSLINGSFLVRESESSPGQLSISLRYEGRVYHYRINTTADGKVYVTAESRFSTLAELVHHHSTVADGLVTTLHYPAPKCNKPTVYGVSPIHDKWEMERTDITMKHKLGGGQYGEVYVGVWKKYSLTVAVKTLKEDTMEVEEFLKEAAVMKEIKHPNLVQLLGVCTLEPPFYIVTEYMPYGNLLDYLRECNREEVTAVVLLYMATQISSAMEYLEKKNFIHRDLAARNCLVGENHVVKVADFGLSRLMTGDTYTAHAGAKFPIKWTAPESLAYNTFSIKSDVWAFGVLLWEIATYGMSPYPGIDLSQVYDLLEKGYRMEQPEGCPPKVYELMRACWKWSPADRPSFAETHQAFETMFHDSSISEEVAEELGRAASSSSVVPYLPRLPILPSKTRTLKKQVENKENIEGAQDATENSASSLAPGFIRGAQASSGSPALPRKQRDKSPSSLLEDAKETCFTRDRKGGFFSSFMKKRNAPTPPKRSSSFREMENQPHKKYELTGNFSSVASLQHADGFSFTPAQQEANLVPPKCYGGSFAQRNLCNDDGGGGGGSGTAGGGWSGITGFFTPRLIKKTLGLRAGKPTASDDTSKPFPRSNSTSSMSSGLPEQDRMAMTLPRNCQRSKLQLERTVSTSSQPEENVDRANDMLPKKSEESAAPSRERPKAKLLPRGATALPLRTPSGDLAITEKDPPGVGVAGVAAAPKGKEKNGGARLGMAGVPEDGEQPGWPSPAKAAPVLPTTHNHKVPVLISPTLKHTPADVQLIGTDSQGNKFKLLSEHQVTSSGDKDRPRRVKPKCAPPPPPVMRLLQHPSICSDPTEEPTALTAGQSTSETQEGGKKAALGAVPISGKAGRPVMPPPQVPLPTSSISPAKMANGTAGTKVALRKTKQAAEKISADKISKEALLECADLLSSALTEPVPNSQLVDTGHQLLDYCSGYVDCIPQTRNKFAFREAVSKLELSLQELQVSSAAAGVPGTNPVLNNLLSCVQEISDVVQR
T4 sequence (P10721 26-976 V559D): as the sequence (P10721 26-976 A829P) above, with V534D, P804A counted along it
T5 sequence (P10721 26-976 V559D/V654A): as the sequence (P10721 26-976 A829P) above, with V534D, V629A, P804A counted along it

Compound | % Ctrl, ABL1(F317I)-nonphosphorylated (kinases [1]; ABL1(F317I)-nonphosphorylated) | % Ctrl, ABL1(F317I)-phosphorylated (kinases [1]; ABL1(F317I)-phosphorylated) | % Ctrl, EGFR (kinases [2]; EGFR) | % Ctrl, KIT(D816V) (kinases [3]; KIT(D816V)) | % Ctrl, KIT(V559D) (kinases [4]; KIT(V559D)) | % Ctrl, KIT(V559D, V654A) (kinases [5]; KIT(V559D, V654A)) | % Ctrl, ABL2 (kinases [6]; ABL2) | % Ctrl, EGFR(L861Q) (kinases [7]; EGFR(L861Q)) | % Ctrl, KIT (kinases [8]; KIT) | % Ctrl, KIT-autoinhibited (kinases [8]; KIT-autoinhibited) | % Ctrl, FLT3(N841I) (kinases [9]; FLT3(N841I)) | % Ctrl, RET(V804L) (kinases [10]; RET(V804L)) | % Ctrl, KIT(A829P) (kinases [11]; KIT(A829P)) | other results
Cc1cc2c([nH]1)/C=C1\C(=O)Nc3ccc(cc31)OCCOCCN(C)C2=O [Ex.91, [16a(17)Z]-2,5-dimethyl-6,7,9,10-tetrahydro-1H-12,14-(ethanediylidene)dipyrrolo[3,2-i:3′,4′-l][1,4,7]dioxazacyclopentadecine-4,16(5H,15H)-dione] | 20 % Ctrl | 39 % Ctrl | 99 % Ctrl | 20 % Ctrl | 62 % Ctrl | 8 % Ctrl | 32 % Ctrl | 66 % Ctrl | 82 % Ctrl | 73 % Ctrl | 0 % Ctrl | 3.8 % Ctrl | 32 % Ctrl | 
Cc1cc2c([nH]1)/C=C1\C(=O)Nc3cc(Cl)c(cc31)OCCOCCN(C)C2=O [Ex. 131, [16a(17)Z]-19-chloro-2,5-dimethyl-6,7,9,10-tetrahydro-1H-12,14-(ethanediylidene)dipyrrolo[3,2-i:3′,4′-l][1,4,7]dioxazacyclopentadecine-4,16(5H,15H)-dione] | 0 % Ctrl | 3.5 % Ctrl | 52 % Ctrl | 1.2 % Ctrl | 0.15 % Ctrl | 12 % Ctrl | 1.8 % Ctrl | 78 % Ctrl | 1.1 % Ctrl | 13 % Ctrl | 0 % Ctrl | 0 % Ctrl | 4 % Ctrl | 
Cc1nn(C)c2c1-c1ccc3c(c1)/C(=C/c1[nH]ccc1C(=O)N(C)CCCO2)C(=O)N3 [Ex. 150, [3a(4)Z]-9,14,16-trimethyl-10,11,13,14-tetrahydro-2H-1,17-(ethanediylidene)pyrazolo[4,3-m]dipyrrolo[3,2-f:3′,4′-i][1,4]oxazacyclopentadecine-3,8(5H,9H)-dione] |  |  |  |  |  |  |  |  |  |  |  |  |  | % Ctrl, ABL1(F317I)-nonphosphorylated (kinases [1]; target ABL1(F317I)-nonphosphorylated): 95 % Ctrl; % Ctrl, ABL1(F317I)-phosphorylated (kinases [1]; target ABL1(F317I)-phosphorylated): 88 % Ctrl; % Ctrl, EGFR (kinases [2]; target EGFR): 61 % Ctrl; % Ctrl, KIT(D816V) (kinases [3]; target KIT(D816V)): 89 % Ctrl; % Ctrl, KIT(V559D) (kinases [4]; target KIT(V559D)): 88 % Ctrl; % Ctrl, KIT(V559D, V654A) (kinases [5]; target KIT(V559D, V654A)): 100 % Ctrl; % Ctrl, ABL2 (kinases [6]; target ABL2): 95 % Ctrl; % Ctrl, EGFR(L861Q) (kinases [7]; target EGFR(L861Q)): 69 % Ctrl; % Ctrl, KIT-autoinhibited (kinases [8]; target KIT-autoinhibited): 100 % Ctrl; % Ctrl, KIT (kinases [8]; target KIT): 97 % Ctrl; % Ctrl, FLT3(N841I) (kinases [9]; target FLT3(N841I)): 19 % Ctrl; % Ctrl, RET(V804L) (kinases [10]; target RET(V804L)): 77 % Ctrl; % Ctrl, KIT(A829P) (kinases [11]; target KIT(A829P)): 96 % Ctrl
Cc1cc2c([nH]1)/C=C1\C(=O)Nc3cnc(nc31)N(C)CCCOCCN(C)C2=O [Ex.71, [17a(18)Z]-2,5,12-trimethyl-6,7,9,10,11,12-hexahydro-1H-13,15-(azenometheno)dipyrrolo[3,2-f:3′,4′-i][1,4,11,13]oxatriazacyclohexadecine-4,17(5H,16H)-dione] | 100 % Ctrl | 100 % Ctrl | 95 % Ctrl | 100 % Ctrl | 100 % Ctrl | 100 % Ctrl | 100 % Ctrl | 80 % Ctrl | 100 % Ctrl | 100 % Ctrl | 75 % Ctrl | 95 % Ctrl | 100 % Ctrl | 
CNC(=O)[C@H]1CN(C)C(=O)c2cc(C)[nH]c2/C=C2\C(=O)Nc3cc(Cl)c(cc32)OCCO1 [Ex. 135, [7R,16a(17)Z]-19-chloro-N,2,5-trimethyl-4,16-dioxo-4,5,6,7,9,10,15,16-octahydro-1H-12,14-(ethanediylidene)dipyrrolo[3,2-i:3′,4′-l][1,4,7]dioxazacyclopentadecine-7-carboxamide] | 96 % Ctrl | 84 % Ctrl | 100 % Ctrl | 76 % Ctrl | 45 % Ctrl | 59 % Ctrl | 85 % Ctrl | 86 % Ctrl | 55 % Ctrl | 82 % Ctrl | 41 % Ctrl | 60 % Ctrl | 75 % Ctrl | 
Cc1cc2c([nH]1)/C=C1\C(=O)Nc3ccc(cc31)-c1cnn(C)c1COCCN(C)C2=O [Ex. 124, [3a(4)Z]-6,9,14-trimethyl-10,11,13,14-tetrahydro-2H-1,17-(ethanediylidene)pyrazolo[4,3-m]dipyrrolo[3,2-f:3′,4′-i][1,4]oxazacyclopentadecine-3,8(5H,9H)-dione] | 0 % Ctrl | 1.5 % Ctrl | 50 % Ctrl | 0.7 % Ctrl | 36 % Ctrl | 7.7 % Ctrl | 2.4 % Ctrl | 81 % Ctrl | 45 % Ctrl | 93 % Ctrl | 0 % Ctrl | 0 % Ctrl | 4.3 % Ctrl | 
